Results reported in patent US20210047373A1, “BETA BARREL POLYPEPTIDES AND METHODS FOR THEIR USE” (UNIVERSITY OF WASHINGTON, priority 2018, published 2021).
Read-outs that look alike come from different tables or passages of the source. Marks after values point to notes of the source that are not given here.

B1: mFAP2.1: SEQ ID NO:40 (protein)
chain: MSRAAQLLPGTWQVTMTNEDGQTSQGQMHFQPRSPYTMDVVAQGTISDGRTIVGYGKVTVKTPDTLDVDITYPSLGNIKAQGQITMDSPTQFKFDATTKGAGNFTGRLTGTLQRQE
modifications: (1)..(1) optionally absent

Assays:
[1] = cited from earlier work
[2] = unbound, free DFHBI in liquid buffer; Paige et al., 2011; cited from earlier work
[3] = Photophysical characterization (absorbance, excitation, emission, extinction coefficient, quantum yield); type: physicochemical; conditions: Table 2
[4] = Fluorescence brightness with DFHO; type: biochemical; conditions: normalized 0 to 1 across all three chromophores; average ± SD of two protein concentrations
Protocol: (§1) Table 3A-C. Brightness and chromophore affinities of selected mFAP variants. Fluorescence brightness measurements at 10 μM (top table) and 100 nM (middle table) chromophore concentrations were normalized from 0 to 1 across all three chromophores (DFHBI, DFHBI-1T, and DFHO), and the normalized values for two protein concentrations tested for each chromophore at each chromophore concentration were averaged and standard deviations of the average computed. Reported values are the normalized averages and standard deviations of the means for each chromophore concentration and each chromophore. Reported relative densitometry values are the relative densitometry values normalized from 0 to 1 and represent how well each design expresses relative to one another in Lemo21(DE3) E. coli cultures. Thermodynamic dissociation constants (bottom table) are obtained by non-linear least squares fitting of chromophore titrations (n=1) to a single binding site isotherm, and values reported with the standard deviation of the fit. Where the obtained Kd values are below the protein concentration tested, the Kd and standard deviation of the fit are reported in parentheses. Values with “N/D” were not determined.

[5] = pH-dependent fluorescence of mFAP/DFHBI complexes; type: biochemical; conditions: pH 3.66
Excerpt: FIG. 22: In vitro characterization of the pH-responsive mFAP_pH and comparison to the existing pHRed system and pH-unresponsive mFAP2b. (a-c) Chemical basis of pH-responsiveness in mFAP_pH. (a) Chemical structures of protonated tautomers and deprotonated resonance structures of DFHBI. […] The arrangement of intermolecular hydrogen bonds in the binding site of mFAP2b (c, binding pocket of the design model with the phenolate form of DFHBI) has low shape complementarity to the protonated DFHBI tautomers. The mutations W27M and W93F improve binding to the protonated DFHBI tautomers (b, model of mFAP_pH binding pocket with the phenolic form of DFHBI). […] (d) Normalized fluorescence excitation spectra of the mFAP_pH/DFHBI complex are shown for a pH titration from pH 3.63 to pH 8.38. (e) mFAP_pH normalized fluorescence emission spectra at pH 3.63 and pH 8.38. […] (f) Binding of mFAP_pH to both the phenolic and phenolate forms of DFHBI results in a high fluorescence ratio fold-change from low to high pH. (h, i) pH-dependent fluorescence of the mFAPpH/DFHBI complex compared to the previously described pHRed system. […] (i) Fluorescence ratios (Fratio) of unnormalized fluorescence measurements from panel (h) for mFAP_pH and pHRed. […]
We sought to further improve fluorescence of the complex at acidic and neutral pH and built a site-directed mutagenesis (SDM) library at 15 positions of mFAP2.1. […]

[6] = Fluorescence activation / brightness with DFHBI; type: biochemical; conditions: normalized 0 to 1 across all three chromophores; average ± SD of two protein concentrations
Protocol: Fluorescence binding assay. Protein-activated DFHBI fluorescence signals were measured in 96-well plate format (Corning 3650) on a Synergy neo2 plate reader (BioTek, Inc) with λex=450 nm or 460 nm and λem=500 nm or 510 nm. Binding reactions were performed at […] in PBS pH7.4 buffer. Protein concentrations were determined by 280 nm absorbance as described above. DFHBI (Lucerna, Inc) were resuspended in DMSO as instructed to make 100 mM stock and diluted in PBS to 0.5-10 μM. Approximate emission spectra were recorded for active designs from 490 to 600 nm.
as §1

[7] = Fluorescence brightness with DFHBI-1T; type: biochemical; conditions: normalized 0 to 1 across all three chromophores; average ± SD of two protein concentrations
Protocol: as §1

[8] = Circular dichroism, thermal and GuHCl denaturation; type: physicochemical; conditions: CD in the absence of DFHBI, pH 2.93
Protocol: Circular dichroism (CD). Purified protein samples were prepared at 0.5 mg/ml in 20 mM Tris buffer (150 mM NaCl, pH8.0) or PBS buffer (25 mM phosphate, 150 mM NaCl, pH7.4). Wavelength scans from 195 nm to 260 nm were recorded at 25 degrees Celsius, 75 degrees Celsius, 95 degrees Celsius and cooling back to 25 degrees Celsius. Thermal denaturation was monitored at 220 nm or 226 nm from 25 degrees Celsius to 95 degrees Celsius. Near-UV wavelength scan from 240 nm to 320 nm and tryptophan fluorescence emission were recorded in the absence and presence of 5M guanidinium chloride (GuHCl). Chemical denaturation in GuHCl was monitored by both tryptophan fluorescence and near-UV CD signal at 285 nm. The concentration of the GuHCl stock solution was measured with a refractometer (Spectronic Instruments, Inc). Far-UV CD experiments were performed on an AVIV model 420 CD spectrometer (Aviv Biomedical, Inc). Near-UV CD and tryptophan fluorescence experiments were performed on a Jasco J-1500 CD spectrometer (Jasco, Inc). Protein concentrations were determined by 280 nm absorbance with a NanoDrop™spectrophotometer (ThermoScientific, Inc). Melting temperatures were estimated by smoothing the sparse data with a Savitsky-Golay filter of order 3 and approximating the smoothed data with a cubic spline to compute derivatives. Reported Tm values are the inflection points of the melting curves.

[9] = previously reported value, Table 4

Molecule | Absolute Quantum Yield ([1]; previously reported value [1], Table 4) | λabs [1, 9] | λem [1, 9] | λex [1, 9] | Reported Quantum Yield ([1]; previously reported value) | Relative Quantum Yield ([1]; reported value (ref 25), Table 2) | pKa [2] | Extinction Coefficient [3] | Absolute Quantum Yield ([3]; integrating sphere) | λabs ([3]; peak absorbance wavelength) [nm] | Fluorescence brightness, 100 nM DFHO [4] | Fluorescence brightness, 10 μM DFHO [4] | Fluorescence in the presence of DFHBI at acidic pH [5] | Fluorescence brightness, 100 nM DFHBI [6] | Fluorescence brightness, 10 μM DFHBI [6] | Fluorescence brightness, 100 nM DFHBI-1T [7] | Fluorescence brightness, 10 μM DFHBI-1T [7] | Stability at low pH [8]
CC1=N/C(=C\c2cc(F)c(O)c(F)c2)C(=O)N1C [DFHBI, (Z)-4-(3,5-difluoro-4-hydroxybenzylidene)-1,2-dimethyl-1H-imidazol-5(4H)-one] | 0.001^# | 418^†# nm | 489^† nm | 423^† nm | 0.0007^† | 0.0007*** | 5.5 | 31,935 M^−1cm^−1 | 0.001 | 418 | – | – | – | – | – | – | – | –
B1 | – | – | – | – | – | – | – | – | – | – | 0.01 ± 0.0 | 0.01 ± 0.0 | higher fluorescence | 0.13 ± 0.0 | 0.07 ± 0.02 | 0.34 ± 0.01 | 0.25 ± 0.01 | improved stability
